According to ChEMBL document CHEMBL1135019, “New generation dopaminergic agents. Part 8: heterocyclic bioisosteres that exploit the 7-OH-2-(aminomethyl)chroman D(2) template” (Bioorg Med Chem Lett, 2002):

Legend:
[1] = target: D(2) dopamine receptor (Rattus norvegicus) (UniProt P61169); experiment: Ratio D2 partial agonist, Ki(D2 Low)/Ki(D2 High), to compare a compounds estimated intrinsic activity.
[2] = target: T1, D(2) dopamine receptor (Rattus norvegicus, UniProt P61169)
Description: Affinity of compound for D2 receptor in rat striatal membrane determined for agonist state (high affinity state, D2 High) [3H]quinpirole as radioligand (in the absence of GTP and sodium)

[3] = target: T1, D(2) dopamine receptor; remark: listed apart in the source
Description: Affinity of compound for Dopamine receptor D2 in rat striatal membrane determined for antagonist state (low affinity state, D2 Low) with [3H]spiperone (using ketanserin to exclude 5-HT2 receptor binding) in the presence of GTP and sodium

[4] = target: D(2) dopamine receptor (Homo sapiens, UniProt P14416); experiment: biochemical
Description: Affinity for the Dopamine receptor D2S was determined using membranes from CHO cells labeled with [3H]spiperone

[5] = target: D(3) dopamine receptor (Homo sapiens, UniProt P35462); experiment: biochemical
Description: Affinity for the Human Dopamine receptor D3 was determined using membranes from CHO cells labeled with [3H]spiperone

[6] = target: T2, D(4) dopamine receptor (Homo sapiens, UniProt P21917); experiment: biochemical
T2 sequence (P21917 whole entry): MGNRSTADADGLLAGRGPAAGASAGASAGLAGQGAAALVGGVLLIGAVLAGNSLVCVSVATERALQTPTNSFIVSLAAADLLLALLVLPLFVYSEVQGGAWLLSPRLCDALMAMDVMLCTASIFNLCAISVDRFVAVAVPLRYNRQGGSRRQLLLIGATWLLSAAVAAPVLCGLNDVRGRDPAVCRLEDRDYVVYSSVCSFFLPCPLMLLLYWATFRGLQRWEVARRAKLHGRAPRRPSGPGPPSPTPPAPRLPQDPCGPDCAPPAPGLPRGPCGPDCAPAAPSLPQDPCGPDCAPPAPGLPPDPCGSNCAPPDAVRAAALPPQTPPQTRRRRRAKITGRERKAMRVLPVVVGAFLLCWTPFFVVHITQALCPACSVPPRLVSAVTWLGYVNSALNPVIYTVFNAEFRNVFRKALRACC
Description: Affinity for the Human Dopamine receptor D4 was determined using membranes from CHO cells labeled with [3H]spiperone

D(2) dopamine receptor (Homo sapiens, UniProt P14416), sequence (P14416 whole entry): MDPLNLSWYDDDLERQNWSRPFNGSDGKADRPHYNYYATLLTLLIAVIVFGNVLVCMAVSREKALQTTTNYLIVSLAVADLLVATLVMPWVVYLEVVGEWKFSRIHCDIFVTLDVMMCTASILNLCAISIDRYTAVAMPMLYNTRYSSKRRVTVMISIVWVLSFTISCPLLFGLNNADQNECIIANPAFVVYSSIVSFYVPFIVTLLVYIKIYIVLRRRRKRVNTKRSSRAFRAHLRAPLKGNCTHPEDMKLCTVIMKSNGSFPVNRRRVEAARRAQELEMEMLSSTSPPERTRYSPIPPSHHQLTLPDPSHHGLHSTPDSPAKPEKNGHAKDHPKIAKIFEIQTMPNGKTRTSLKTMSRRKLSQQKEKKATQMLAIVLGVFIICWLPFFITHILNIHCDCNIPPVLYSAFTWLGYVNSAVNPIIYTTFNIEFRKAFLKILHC
T1 sequence (P61169 whole entry): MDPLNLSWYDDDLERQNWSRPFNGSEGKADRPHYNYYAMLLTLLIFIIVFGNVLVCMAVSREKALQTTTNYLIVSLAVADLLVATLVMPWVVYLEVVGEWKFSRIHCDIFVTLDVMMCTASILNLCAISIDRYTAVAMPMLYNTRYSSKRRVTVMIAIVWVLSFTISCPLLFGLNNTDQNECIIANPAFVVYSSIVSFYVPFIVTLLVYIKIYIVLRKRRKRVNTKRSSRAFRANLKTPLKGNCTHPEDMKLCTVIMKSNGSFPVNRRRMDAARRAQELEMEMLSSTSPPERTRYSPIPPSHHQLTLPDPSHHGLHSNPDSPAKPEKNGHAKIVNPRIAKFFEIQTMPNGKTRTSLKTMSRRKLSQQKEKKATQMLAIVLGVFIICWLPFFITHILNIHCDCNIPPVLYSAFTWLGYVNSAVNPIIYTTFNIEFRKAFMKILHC
D(2) dopamine receptor (Rattus norvegicus), sequence (P61169 whole entry, looked up): as the sequence (P61169 whole entry) above
D(3) dopamine receptor, sequence (P35462 whole entry): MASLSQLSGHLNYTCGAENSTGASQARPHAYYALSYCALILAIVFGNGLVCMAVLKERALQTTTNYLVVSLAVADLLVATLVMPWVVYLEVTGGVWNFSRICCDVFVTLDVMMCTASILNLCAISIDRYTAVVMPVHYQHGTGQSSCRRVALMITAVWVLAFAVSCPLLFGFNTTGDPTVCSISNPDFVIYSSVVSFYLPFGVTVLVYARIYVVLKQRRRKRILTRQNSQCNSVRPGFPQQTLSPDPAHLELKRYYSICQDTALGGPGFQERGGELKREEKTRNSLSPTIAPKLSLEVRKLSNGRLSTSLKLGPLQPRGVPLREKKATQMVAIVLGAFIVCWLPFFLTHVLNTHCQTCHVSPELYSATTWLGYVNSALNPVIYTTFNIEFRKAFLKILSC

Ratio [1] | Ki [2] [nM] | Ki [3] [nM] | Ki [4] [nM] | Ki [5] [nM] | Ki [6] [nM] | SMILES
11 |  |  |  |  |  | FC(F)(F)c1nc2c3c(ccc2[nH]1)CCC(CNCc1ccccc1)O3 (racemic)
 | 0.14 | 7.01 | 5 | 1 | 10 | O=c1[nH]c2ccc3c(c2[nH]1)OC(CNCc1ccccc1)CC3 (racemic)
50 |  |  |  |  |  | Oc1nc2c3c(ccc2[nH]1)CCC(CNCc1ccccc1)O3 (racemic)
42 |  |  | 9.3 | 2.4 | 359 | O=C1Cc2c(ccc3c2O[C@@H](CNCc2ccccc2)CC3)N1
 | 5.45 | 67.5 | 67 | 81 | 313 | O=c1[nH]c2ccc3c(c2[nH]1)O[C@H](CNCc1ccccc1)CC3
12 |  |  |  |  |  | Oc1nc2c3c(ccc2[nH]1)CC[C@@H](CNCc1ccccc1)O3
24 |  |  | 107 | 34 | 2170 | c1ccc(CNC[C@H]2CCc3ccc4[nH]ccc4c3O2)cc1
69 |  |  |  |  |  | Oc1nc2c3c(ccc2[nH]1)CC[C@H](CNCc1ccccc1)O3
 | 0.07 | 4.81 | 3 | 0.4 | 7 | O=c1[nH]c2ccc3c(c2[nH]1)O[C@@H](CNCc1ccccc1)CC3
 | 5.75 | 65.1 | 132 | 263 | 37 | FC(F)(F)c1nc2ccc3c(c2[nH]1)OC(CNCc1ccccc1)CC3 (racemic)
